The text below walks through data of patent WO2005094256A2, “Polypeptides toxic to nematodes, and methods of use” (Individual, priority 2004, dated 2005).

This test relates to serratia metalloprotease SMP #1 from Serratia marcescens NRRL B-23112, SEQ ID NO:2. Nature of the test: Inhibition of protease activity of SMP #1: residual proteolytic (casein digestion) activity after addition of inhibitor, 25°C, 30 minutes. The test is classed as biochemical.

Molecules are shown by their SMILES. Where a name gives a salt, the structure may show the parent alone. *1 amine or outer side, *2 acyl side, *3 side chain or, on linkers, in order; H or OH if unused. Where a SMILES comes first, the peptide text is derived from it. [ ]: non-standard residue; d: D form. The star is where a group is joined. Sta = CC(C)C[C@H](N)[C@@H](O)CC(=O)O; Isovaleryl = CC(C)CC(=O)*; CO = O=C([*:1])[*:2]

Turning to `OCCS` [2-mercaptoethanol], where the note is “0.5% v/v”, the “activity of SMP #1 retained in the presence of 2-mercaptoethanol” value is “retains full activity”.
As to `CC(C)C[C@H](NC(=O)[C@H]1O[C@@H]1C(=O)O)C(=O)NCCCCNC(=N)N` [E-64], the “inhibition of SMP #1” value (20μg/ml) is on record as “not inhibited”.
In the case of `O=C(O)CN(CCN(CC(=O)O)CC(=O)O)CC(=O)O` [EDTA], where the note is “9μg/ml”, the “inhibition of SMP #1” value is reported as “inhibited”.
Turning to `Cl.NCCc1ccc(S(=O)(=O)F)cc1` [Pefabloc SC], for the setting “2000μg/ml”, the “inhibition of SMP #1” value was “not inhibited”.
Consider `CC(C)[C@H](NC(=O)[C@H](CCCNC(=N)N)NC(=O)N[C@@H](Cc1ccccc1)C(=O)O)C(=O)N[C@H](C=O)CCCNC(=N)N` [antipain dihydrochloride] ({Phe-CO}-Arg-Val-Arg-aldehyde), for which the “inhibition of SMP #1” value (120μg/ml) was “not inhibited”.
On to `CC(C)C[C@H](NC(=O)[C@@H](O)[C@H](N)Cc1ccccc1)C(=O)O` [bestatin], for which, under “80μg/ml”, the “inhibition of SMP #1” value is given as “not inhibited”.
For the compound `CC(C)C[C@H](NC(=O)[C@@H](NC(=O)N[C@@H](Cc1ccccc1)C(=O)O)[C@@H]1CCN=C(N)N1)C(=O)N[C@H](C=O)Cc1ccccc1` [chymostatin], the “inhibition of SMP #1” value (50μg/ml) is “not inhibited”.
`CC(=O)N[C@@H](CC(C)C)C(=O)N[C@@H](CC(C)C)C(=O)N[C@H](C=O)CCCNC(=N)N` [leupeptin]: the “inhibition of SMP #1” value (4μg/ml) was “not inhibited”.
Regarding `CC(C)CC(=O)N[C@H](C(=O)N[C@H](C(=O)N[C@@H](CC(C)C)[C@@H](O)CC(=O)N[C@@H](C)C(=O)N[C@@H](CC(C)C)[C@@H](O)CC(=O)O)C(C)C)C(C)C` [pepstatin] (Isovaleryl-VV[Sta]A[Sta]-OH), the “inhibition of SMP #1” value (4μg/ml) is reported as “not inhibited”.
Turning to `O=S(=O)(F)Cc1ccccc1` [phenylmethylsulfonyl fluoride], the “inhibition of SMP #1” value (400μg/ml) is “not inhibited”.
In the case of `CC(C)C[C@H](NP(=O)(O)O[C@@H]1O[C@@H](C)[C@H](O)[C@@H](O)[C@H]1O)C(=O)N[C@@H](Cc1c[nH]c2ccccc12)C(=O)O` [phosphoramidon], the “inhibition of SMP #1” value (660μg/ml) was “not inhibited”.
